# Results: patent US20230054039A1, “METHOD OF TREATING HER2-POSITIVE BREAST CANCER” (University of Cincinnati, priority 2021, published 2023)
# Peptide text beside a SMILES is read from it. * marks the point of attachment. Cbz = O=C(OCc1ccccc1)*
# Experiments:
# HeLa cells = experiment: Immunoblot of HER2 levels in HeLa cells treated with autophagy inhibitors (FIG. 2I); format: cell-based; settings: 48 hrs, chloroquine 50 μM, bafilomycin 200 nM, 3-MA 5 mM, spautin-1 10 μM
# Method: FIG. 2I. Immuno-blots showing levels of HER2 and GAPDH in HeLa cells treated by HBSS starvation, chloroquine (50 μM), bafilomycin (200 nM), 3-methyladenine (3-MA) (5 mM) and spautin-1 (10 μM) for 48 hrs.
# (§1) Western blot: Cells were cultured in 3.5 cm diameter plates (80-90% confluence), washed by PBS buffer, and lysed for 15 min on ice using a RIPA buffer (#C2978, Sigma) containing an anti-protease mix (#PI78415, Thermo Scientific). Protein concentration was measured by BCA assay (#23225, Thermo Scientific). Equal amounts of proteins were subjected to SDS-PAGE and immunoblotting as described previously (Wei et al., 2011).
# To further evaluate the role of autophagy in the regulation of HER2 levels, shRNA was used to knockdown expression of another essential autophagy gene, Atg5, in the two lines of HER2 tumor cells (FIGS. 2F and 2G). […] Further, decreased HER2 levels upon FIP200 deletion was due to autophagy blockade, rather than the loss of other activities of FIP200, in HER2-driven mammary tumor cells, which was consistent with the similar phenotypes of cKO and cKI mice.
# Fip200−/− tumor cells = experiment: Immunoblot of HER2 in Fip200-/- tumor cells treated with MG132 (FIG. 3C); format: cell-based, mouse; settings: MG132 10 μM for 6 hours
# Method: FIG. 3C. Immunoblots showing levels of HER2, ubiquitin and GAPDH in Fip200+/+ and Fip200−/− cells treated with DMSO and MG132 (10 μM) for 6 hours.
# Cell lines and culture: Primary HER2 tumor cells from FIP200f/f; MMTV-Neu mice (N148 and N418 cells) were isolated and cultured in DMEM/F12 supplemented with 10% FBS, 10 ng/mL EGF, […], and 50 units/mL penicillin-streptomycin. HER2 tumor cells were then infected with recombinant retroviruses encoding CreERT2 and deletion of Fip200 was induced by culturing with 100 nmol/L 4-hydroxytamoxifen (4-OHT). HeLa and MCF-7 cells were obtained from ATCC and maintained in DMEM supplemented with 10% FBS. FIP200 KO and control WT MEF cells have been described previously.
# as §1, with “Equal amounts of proteins were subjected to SDS-PAGE and immunoblotting as described previously (Wei et al., 2011).” left out
# To further investigate regulation of HER2 by autophagy, mRNA levels of HER2 in mammary tumor and HeLa cells with or without autophagy inhibition were examined. […] Next, HER2 protein stability was analyzed and a decreased half-life of HER2 protein in Fip200−/− tumor cells (˜3 hrs) relative to Fip200+/+tumor cells (˜5 hrs) (FIGS. 3A and 3B) was observed. […]
# [1] = tested on: FIP200 and ATG13 KO HeLa cells; experiment: Immunoblot of HER2 in FIP200 KO and ATG13 KO HeLa cells treated with MG132 (FIG. 3D); format: cell-based; settings: MG132 10 μM for 6 hours
# Method: FIG. 3D. Immunoblots showing levels of HER2, ubiquitin and GAPDH in WT, FIP200 KO and Atg13 KO HeLa cells treated with DMSO and MG132 (10 μM) for 6 hours.
# CRISPR/Cas9-mediated knockout of FIP200 or ATG13 in HeLa and MCF-7 cells and knockdown of Atg5 in HER2 tumor cells: The pX458 plasmid, pSpCas9(BB)-2A-GFP (PX458) was a gift from Feng Zhang, Addgene plasmid # 48138 was used as the cloning backbone for expressing sgFIP200 and sgATG13. The sgRNA sequences of FIP200 and ATG13 are as follows:
# as §1, with “Equal amounts of proteins were subjected to SDS-PAGE and immunoblotting as described previously (Wei et al., 2011).” left out
# To further investigate regulation of HER2 by autophagy, mRNA levels of HER2 in mammary tumor and HeLa cells with or without autophagy inhibition were examined. […] Next, HER2 protein stability was analyzed and a decreased half-life of HER2 protein in Fip200−/− tumor cells (˜3 hrs) relative to Fip200+/+tumor cells (˜5 hrs) (FIGS. 3A and 3B) was observed. MG132 was used to inhibit proteasome-mediated protein degradation and its effect on HER2 protein levels in autophagy deficient HER2 tumor and HeLa cells was determined.
# [2] = tested on: FIP200 and ATG13 KO HeLa cells; experiment: Immunoblot of HER2 in FIP200 KO and ATG13 KO HeLa cells treated with Dynasore (FIG. 13C); format: cell-based; settings: 20 μM Dynasore for 24 hours
# Method: FIG. 13C. Immuno-blots showing levels of HER2 and GAPDH in WT, FIP200 KO and ATG13 KO HeLa cells with or without treatment of 20 μM Dynasore for 24 hours, as indicated.
# as §1
# To test the above possibility directly, endocytosis of HER2 in HeLa cells with or without autophagy blockade was examined. […] In addition to endocytosis from the plasma membrane, proteins from the Golgi could be transported through endosomes to the lysosome or other compartments. […] Co-expression of mTurquoise2-beta-1,4-galactosyltransferase 1 (which constitutively expresses in the Golgi) in these cells further supported accumulation of HER2 in the Golgi of FIP200 and ATG13 KO HeLa cells (FIG. 4E).
smiles,measurement,setting,value
"CO/C1=C\C(C)=C\[C@@H](C)[C@@H](O)[C@@H](C)C/C(C)=C/C=C/[C@H](OC)[C@@H]([C@@H](C)[C@@H](O)[C@H](C)[C@@]2(O)C[C@@H](O)[C@H](C)[C@@H](C(C)C)O2)OC1=O [bafilomycin Al, Bafilomycin A1]",levels of HER2,HeLa cells,reduced HER2 levels
CC(C)C[C@@H](C=O)NC(=O)[C@H](CC(C)C)NC(=O)[C@H](CC(C)C)NC(=O)OCc1ccccc1 [MG132] (Cbz-Leu-Leu-Leu-aldehyde),reversal of reduced levels of HER2 protein,Fip200−/− tumor cells,did not significantly reverse the reduced levels of HER2 protein
same,reversal of reduced levels of HER2 protein,[1],did not significantly reverse the reduced levels of HER2 protein
CCN(CC)CCCC(C)Nc1ccnc2cc(Cl)ccc12 (centres unmarked) [chloroquine],levels of HER2,HeLa cells,reduced HER2 levels
O=C(N/N=C/c1ccc(O)c(O)c1)c1cc2ccccc2cc1O [Dynasore],rescue of decreased level of HER2,[2],did not rescue the decreased level of HER2
